Columns and labels:
Assay in all cases: relative viability (nuclei count vs DMSO), 5 days (fraction); higher = more cells survive
[1] = compound: C1CNCCC1C2=CC(=NN2)C3=CC=NC=C3 + CC1(C)CCC(c2ccc(Cl)cc2)=C(CN2CCN(c3ccc(C(=O)NS(=O)(=O)c4ccc(N[C@H](CCN5CCOCC5)CSc5ccccc5)c(S(=O)(=O)C(F)(F)F)c4)cc3)CC2)C1 [Navitoclax] (partner 0.5 µM)
Method in brief: (§1)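 Cells from lung cancer lines were seeded into 1536-well plates and, one day later, dosed by pin tool. Treatments were either a single drug or a fixed dose of an anchor drug with five library-drug doses (not always all listed) in √10 steps. After 5 days, nuclei were stained in a one-step fixation (final 0.05% Triton X-100, 1% formaldehyde, 1 ug/ml Hoechst) and counted on 4× images, and relative viability is the treated-to-vehicle nuclei ratio, as the median of duplicate plates.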

[2] = compound: C1CNCCC1C2=CC(=NN2)C3=CC=NC=C3 + CS(=O)(=O)CCNCc1ccc(-c2ccc3ncnc(Nc4ccc(OCc5cccc(F)c5)c(Cl)c4)c3c2)o1 [Lapatinib] (partner 2 µM)
Method in brief: as §1

[3] = compound: C[C@@H](N)c1ccc(C(=O)Nc2ccnc3[nH]ccc23)cc1 + CC(C)C[C@H](NC(=O)[C@H](Cc1ccccc1)NC(=O)c1cnccn1)B(O)O [Bortezomib] (partner 0.002 µM)
Method in brief: as §1

[4] = compound: C[C@@H](N)c1ccc(C(=O)Nc2ccnc3[nH]ccc23)cc1 + C[C@]1(O)C[C@@H](c2nc(-c3ccc4ccc(-c5ccccc5)nc4c3)c3c(N)nccn32)C1 [Linsitinib] (partner 1 µM)
Method in brief: as §1

Cell Line	relative viability ([1]; first compound 0.08 µM)	relative viability ([1]; first compound 0.8 µM)	relative viability ([1]; first compound 2.53 µM)	relative viability ([1]; first compound 8 µM)	relative viability ([2]; first compound 0.08 µM)	relative viability ([2]; first compound 0.8 µM)	relative viability ([2]; first compound 2.53 µM)	relative viability ([2]; first compound 8 µM)	relative viability ([3]; first compound 0.04 µM)	relative viability ([3]; first compound 0.1265 µM)	relative viability ([3]; first compound 0.4 µM)	relative viability ([3]; first compound 1.265 µM)	relative viability ([3]; first compound 4 µM)	relative viability ([4]; first compound 0.04 µM)	relative viability ([4]; first compound 0.1265 µM)	relative viability ([4]; first compound 0.4 µM)	relative viability ([4]; first compound 1.265 µM)	relative viability ([4]; first compound 4 µM)
EMC-BAC-2	1.11	1.37	1.25	1.14	0.682	0.927	0.897	0.87	0.882	1.21	1.19	1.08	0.968	0.84	0.846	0.738	0.827	0.613
NCI-H647	1.18	1.33	1.37	1.12	1.06	1.26	1.15	1.01	0.846	1.02	1.09	0.868	0.869	1.14	1.18	1.22	1.28	0.976
LXF-289	0.957	1.02	0.977	0.934	0.934	0.937	0.864	0.91	1.01	0.976	1.07	1.05	0.952	1.02	0.995	0.997	1.09	0.88
LOU-NH91	0.653	0.762	0.866	0.703	0.766	0.739	0.826	0.854	0.504	0.56	0.515	0.468	0.429	0.831	0.979	0.778	0.726	0.702
NCI-H23	0.711	0.908	1.09	0.948	1.15	1.34	1.49	1.22	1.21	1.17	1.11	–	1.03	0.665	0.641	0.779	–	0.519
NCI-H1993	0.9	0.866	1.01	0.908	0.764	0.881	0.837	0.778	1.19	1.13	–	0.943	1.15	0.824	0.753	–	0.834	0.663
HCC-827	0.972	0.995	0.991	0.876	0.207	0.174	0.22	0.166	0.97	1.03	1.1	1.05	0.972	0.972	0.94	0.911	0.925	0.843
CAL-12T	1.11	1.45	1.29	1.43	0.714	0.613	0.811	0.666	1.09	1.07	1.2	–	1.04	0.928	0.888	0.88	1.09	0.719
NCI-H838	1.13	1.11	1.25	1.14	0.906	0.97	1.07	0.895	0.624	0.758	0.605	0.393	0.342	0.945	0.905	0.796	0.533	0.367
